Measured values from patent US11691971B2, “Naphthyridinone compounds as JAK2 V617F inhibitors” (Incyte Corporation, priority 2020, dated 2023).
Structures can show the parent of a compound that is named as a salt.

Assays:
[1] = biological target: catalytic domain (JH1, amino acids 826-1132) of human JAK2 (Homo sapiens (Human), UniProt O60674); assay: JAK2 LanthaScreen JH1 Binding Assay; details: JAK2 JH1 1.5 nM, 50 nM tracer, 2 hours at 25° C.; read-out: JH1BIND IC50
Description: Example A. JAK2 LanthaScreen JH1 Binding Assay
(§1) JAK2 JH1 binding assay utilizes catalytic domain (JH1, amino acids 826-1132) of human JAK2 expressed as N-terminal FLAG-tagged, biotinylated protein in a baculovirus expression system (Carna Biosciences, Product #08-445-20N). The assay was conducted in black 384-well polystyrene plates in a final reaction volume of 20 μL. JAK2 JH1 (1.5 nM) was incubated with compounds (100 nL serially diluted in DMSO) in the presence of 50 nM fluorescent JAK2-JH1 tracer and 0.5 nM Streptavidin-Tb cryptate (Cisbio Part #610SATLB) in assay buffer (50 mM Tris, pH=7.5, 10 mM MgCl2, 0.01% Brij-35, 0.1% BSA, 1 mM EGTA, 5% Glycerol and 5 mM DTT). Non-specific binding was accessed in the presence of 2 mM ATP. After incubation for 2 hours at 25° C., LanthaScreen signals were read on a PHERAstar FS plate reader (BMG LABTECH). Data was analyzed with IDBS XLfit and GraphPad Prism 5.0 software using a four parameter dose response curve to determine IC50 for each compound.

[2] = biological target: pseudo-kinase domain (JH2) of human Wild Type JAK2 (Homo sapiens (Human), UniProt O60674, F794H/W659A/W777A); assay: JAK2 LanthaScreen JH2-WT Binding Assay; details: JAK2 JH2-WT 0.145 nM, 50 nM tracer, 1 hour at 25° C.; read-out: JH2BIND_WT IC50
Description: Example B. JAK2 LanthaScreen JH2-WT Binding Assay
as §1, with “The” for “JAK2 JH1 binding assay utilizes catalytic domain (JH1, amino acids 826-1132) of human JAK2 expressed as N-terminal FLAG-tagged, biotinylated protein in a baculovirus expression system (Carna Biosciences, Product #08-445-20N). The”, “JH2-WT (0.145” for “JH1 (1.5”, “Fluorescent JAK2-JH2 Tracer (MedChem Express Catalog #HY-102055)” for “fluorescent JAK2-JH1 tracer”, “0.25” for “0.5”, “1 hour” for “2 hours”

[3] = biological target: pseudo-kinase domain (JH2) of human V617F mutant JAK2 (Homo sapiens (Human), UniProt O60674, F794H/V617F/W659A/W777A); assay: JAK2 LanthaScreen JH2-V617F Binding Assay; details: JAK2 JH2-V617F 0.26 nM, 50 nM tracer, 1 hour at 25° C.; read-out: JH2BINDING_V617F IC50
Description: The assay was conducted in black 384-well polystyrene plates in a final reaction volume of 20 μL. […] Non-specific binding was accessed in the presence of 2 mM ATP. After incubation for 1 hour at 25° C., LanthaScreen signals were read on a PHERAstar FS plate reader (BMG LABTECH). Data was analyzed with IDBS XLfit and GraphPad Prism 5.0 software using a four parameter dose response curve to determine IC50 for each compound.

[4] = biological target: catalytic domain (JH1, amino acids 808-1132) of human JAK2 (Homo sapiens (Human), UniProt O60674); assay: JAK2 HTRF Enzyme Activity Assay; type: biochemical; details: ATP 30 μM, 60 minutes at 25° C.; read-out: ENZ 30UMATP IC50
Description: Example D. JAK2 HTRF Enzyme Activity Assay
JAK2 enzyme activity assays utilize catalytic domain (JH1, amino acids 808-1132) of human JAK2 expressed as N-terminal His-tagged protein in a baculovirus expression system (BPS Bioscience, Catalog #40450). The assays was conducted in black 384-well polystyrene plates in a final reaction volume of 20 μL. JAK2 (0.015 nM) was incubated with compounds (100 nL serially diluted in DMSO) in the presence of ATP (30 μM or 1 mM) and 500 nM Biotin-labeled […] (SEQ ID NO.: 1) peptide (BioSource International, custom synthesis) in assay buffer (50 mM Tris, pH=7.5, 10 mM MgCl2, 0.01% Brij-35, 0.1% BSA, 1 mM EGTA, 5% Glycerol and 5 mM DTT) for 60 minutes at 25° C. The reactions were stopped by the addition of 10 μL of detection buffer (50 mM Tris, pH 7.8, 0.5 mg/mL BSA, 150 mM NaCl), supplemented with EDTA, LANCE Eu-W1024 anti-phosphotyrosine (PY20), (PerkinElmer, Catalog #AD0067) and Streptavidin SureLight APC (PerkinElmer Catalog #CR130-100), for a final concentration of 15 mM, 1.5 nM and 75 nM, respectively. HTRF signals were read after 30 minutes incubation at room temperature on a PHERAstar FS plate reader (BMG LABTECH). Data was analyzed with IDBS XLfit and GraphPad Prism 5.0 software using a four parameter dose response curve to determine IC50 for each compound.

Sequence of pseudo-kinase domain (JH2) of human V617F mutant JAK2 (O60674 536-812 V617F/W659A/W777A/F794H): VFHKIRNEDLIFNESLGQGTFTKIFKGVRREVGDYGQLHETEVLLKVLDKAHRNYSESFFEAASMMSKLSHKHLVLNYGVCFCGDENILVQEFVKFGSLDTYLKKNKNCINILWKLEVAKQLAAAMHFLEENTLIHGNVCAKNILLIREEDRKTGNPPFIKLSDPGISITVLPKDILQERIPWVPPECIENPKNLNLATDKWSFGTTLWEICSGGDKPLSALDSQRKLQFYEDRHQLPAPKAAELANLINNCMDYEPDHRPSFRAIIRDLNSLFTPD
Sequence of catalytic domain (JH1, amino acids 826-1132) of human JAK2 (O60674 826-1132): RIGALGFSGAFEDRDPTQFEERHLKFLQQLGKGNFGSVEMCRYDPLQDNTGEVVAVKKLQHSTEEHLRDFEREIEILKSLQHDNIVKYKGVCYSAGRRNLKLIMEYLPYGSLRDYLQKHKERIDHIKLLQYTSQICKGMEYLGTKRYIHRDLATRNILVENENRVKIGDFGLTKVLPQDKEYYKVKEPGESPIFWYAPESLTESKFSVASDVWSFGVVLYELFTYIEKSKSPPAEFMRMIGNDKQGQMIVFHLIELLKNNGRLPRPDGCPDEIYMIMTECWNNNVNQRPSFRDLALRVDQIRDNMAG
Sequence of pseudo-kinase domain (JH2) of human Wild Type JAK2 (O60674 536-812 W659A/W777A/F794H): as the sequence (O60674 536-812 V617F/W659A/W777A/F794H) above, with F82V counted along it
Sequence of catalytic domain (JH1, amino acids 808-1132) of human JAK2 (O60674 808-1132): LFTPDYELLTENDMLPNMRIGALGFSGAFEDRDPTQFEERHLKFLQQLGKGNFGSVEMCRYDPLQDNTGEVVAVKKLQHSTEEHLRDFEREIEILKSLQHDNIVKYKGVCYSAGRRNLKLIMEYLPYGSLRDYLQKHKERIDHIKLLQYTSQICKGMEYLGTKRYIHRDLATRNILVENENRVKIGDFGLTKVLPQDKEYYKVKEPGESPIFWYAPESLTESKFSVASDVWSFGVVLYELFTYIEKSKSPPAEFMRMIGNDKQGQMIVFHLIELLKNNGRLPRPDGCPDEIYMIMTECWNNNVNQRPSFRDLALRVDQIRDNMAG

Row | SMILES | IC50 [1] [nM] | IC50 [2] [nM] | IC50 [3] [nM] | IC50 [4] [nM]
1 | COc1cc(-c2cnn(C3CCOCC3)c2)ccc1Nc1cc(NC(=O)C2CC2)nc2cc[nH]c(=O)c12 [Example 7, N-(4-((2-Methoxy-4-(1-(tetrahydro-2H-pyran-4-yl)-1H-pyrazol-4-yl)phenyl)amino)-5-oxo-5,6-dihydro-1,6-naphthyridin-2-yl)cyclopropanecarboxamide Trifluoroacetic Acid Salt] | 1000 to 10000 | 1000 to 10000 | > 10000 | 1000 to 10000
2 | COc1c(Nc2cc(NC(=O)C3CC3)nc3cc[nH]c(=O)c23)cccc1-c1cnn(C(C)C(N)=O)c1 (stereo not drawn) [Example 8, N-(4-((3-(1-(1-Amino-1-oxopropan-2-yl)-1H-pyrazol-4-yl)-2-methoxyphenyl)amino)-5-oxo-5,6-dihydro-1,6-naphthyridin-2-yl)cyclopropanecarboxamide Trifluoroacetic Acid Salt] | 1000 to 10000 | ≤ 100 | ≤ 100 | 100 to 500
3 | COc1c(Nc2cc(NC(=O)C3CC3)nc3cc[nH]c(=O)c23)cccc1-c1cnn(C2CCOCC2)c1 [Example 5, N-(4-((2-Methoxy-3-(1-(tetrahydro-2H-pyran-4-yl)-1H-pyrazol-4-yl)phenyl)amino)-5-oxo-5,6-dihydro-1,6-naphthyridin-2-yl)cyclopropanecarboxamide Trifluoroacetic Acid Salt] | > 10000 | ≤ 100 | ≤ 100 | > 10000
4 | O=C(Nc1cc(Nc2ccccc2OC2CC2)c2c(=O)[nH]ccc2n1)C1CC1 [Example 24, N-(4-((2-Cyclopropoxyphenyl)amino)-5-oxo-5,6-dihydro-1,6-naphthyridin-2-yl)cyclopropanecarboxamide Trifluoroacetic Acid Salt] | 1000 to 10000 | 1000 to 10000 | 1000 to 10000 | 500 to 1000
5 | Cc1[nH]ncc1-c1c(Cl)cccc1Nc1cc(NC(=O)C2CC2)nc2cc[nH]c(=O)c12 [Example 17, N-(4-((3-Chloro-2-(5-methyl-1H-pyrazol-4-yl)phenyl)amino)-5-oxo-5,6-dihydro-1,6-naphthyridin-2-yl)cyclopropanecarboxamide Trifluoroacetic Acid Salt] | 1000 to 10000 | 500 to 1000 | 1000 to 10000 | 1000 to 10000
6 | COc1c(Nc2cc(NC(=O)C3CC3)nc3cc[nH]c(=O)c23)cccc1C(=O)NCC1CCOCC1 [Example 11, 3-((2-(Cyclopropanecarboxamido)-5-oxo-5,6-dihydro-1,6-naphthyridin-4-yl)amino)-2-methoxy-N-((tetrahydro-2H-pyran-4-yl)methyl)benzamide Trifluoroacetic Acid Salt] | > 10000 | 1000 to 10000 | 1000 to 10000 | > 10000
7 | CCn1ccc2cccc(Nc3cc(NC(=O)C4CC4)nc4cc[nH]c(=O)c34)c21 [Example 9, N-(4-((1-Ethyl-1H-indol-7-yl)amino)-5-oxo-5,6-dihydro-1,6-naphthyridin-2-yl)cyclopropanecarboxamide Trifluoroacetic Acid Salt] | > 10000 | 1000 to 10000 | 1000 to 10000 | > 10000
8 | O=C(Nc1cc(Nc2cccc(C(F)(F)F)c2-c2cn[nH]c2)c2c(=O)[nH]ccc2n1)C1CC1 [Example 18, N-(4-((2-(1H-pyrazol-4-yl)-3-(trifluoromethyl)phenyl)amino)-5-oxo-5,6-dihydro-1,6-naphthyridin-2-yl)cyclopropanecarboxamide Trifluoroacetic Acid Salt] | > 10000 | 500 to 1000 | 500 to 1000 | > 10000
9 | O=C(Nc1cc(Nc2cccc(-c3cnn(C4CCOCC4)c3)c2)c2c(=O)[nH]ccc2n1)C1CC1 [Example 6, N-(5-oxo-4-((3-(1-(tetrahydro-2H-pyran-4-yl)-1H-pyrazol-4-yl)phenyl)amino)-5,6-dihydro-1,6-naphthyridin-2-yl)cyclopropanecarboxamide Trifluoroacetic Acid Salt] | 1000 to 10000 | > 10000 | > 10000 | 1000 to 10000
10 | O=C(Nc1cc(Nc2ccccc2OC(F)F)c2c(=O)[nH]ccc2n1)C1CC1 [Example 20, N-(4-((2-(Difluoromethoxy)phenyl)amino)-5-oxo-5,6-dihydro-1,6-naphthyridin-2-yl)cyclopropanecarboxamide Trifluoroacetic Acid Salt] | 1000 to 10000 | 1000 to 10000 | 1000 to 10000 | 1000 to 10000
11 | COc1c(Nc2cc(NC(=O)C3CC3)nc3cc[nH]c(=O)c23)cccc1-c1cnn(C2CCCC2)c1 [Example 3, N-(4-((3-(1-Cyclopentyl-1H-pyrazol-4-yl)-2-methoxyphenyl)amino)-5-oxo-5,6-dihydro-1,6-naphthyridin-2-yl)cyclopropanecarboxamide Trifluoroacetic Acid Salt] | > 10000 | 100 to 500 | 100 to 500 | > 10000
12 | COc1c(Nc2cc(NC(=O)C3CC3)nc3cc[nH]c(=O)c23)cccc1N1CCN(S(=O)(=O)C2CC2)CC1 [Example 4, N-(4-((3-(4-(Cyclopropylsulfonyl)piperazin-1-yl)-2-methoxyphenyl)amino)-5-oxo-5,6-dihydro-1,6-naphthyridin-2-yl)cyclopropanecarboxamide Trifluoroacetic Acid Salt] | 1000 to 10000 | 100 to 500 | 100 to 500 | > 10000
13 | COc1ccccc1Nc1cc(NC(=O)C2CC2)nc2cc[nH]c(=O)c12 [Example 21, N-(4-((2-Methoxyphenyl)amino)-5-oxo-5,6-dihydro-1,6-naphthyridin-2-yl)cyclopropanecarboxamide] | 1000 to 10000 | 1000 to 10000 | > 10000 | 1000 to 10000
14 | COc1c(Nc2cc(NC(=O)C3CC3)nc3cc[nH]c(=O)c23)cccc1C(F)(F)F [Example 14, N-(4-((2-Methoxy-3-(trifluoromethyl)phenyl)amino)-5-oxo-5,6-dihydro-1,6-naphthyridin-2-yl)cyclopropanecarboxamide Trifluoroacetic Acid Salt] | > 10000 | 100 to 500 | 100 to 500 | > 10000
15 | COc1c(Nc2cc(NC(=O)C3CC3)nc3ccn(C)c(=O)c23)cccc1-c1cnc(C2CCOCC2)s1 [Example 10, N-(4-((2-Methoxy-3-(2-(tetrahydro-2H-pyran-4-yl)thiazol-5-yl)phenyl)amino)-6-methyl-5-oxo-5,6-dihydro-1,6-naphthyridin-2-yl)cyclopropanecarboxamide Trifluoroacetic Acid Salt] | > 10000 | 1000 to 10000 | 1000 to 10000 | > 10000
